This experiment concerns the target Human Factor D (Homo sapiens (Human), UniProt P00746). Kind of experiment: Human Factor D Assay. The experiment is classed as biochemical. The gist of the method: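 Factor D (from human serum) 80 nM final + cpd, 5 min RT, 50 mM Tris/1M NaCl pH 7.5; add Z-L-Lys-SBzl 100 μM and DTNB 100 μM final. IC50 by nonlinear fit of rates vs [cpd].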
[1] abbreviates: Human Factor D 80 nM, substrate Z-L-Lys-SBzl, read-out: IC50.
Setting [2] is: Human Factor D, Table 3, read-out: IC50.
Setting [3] is: Table 3, Human Factor D 80 nM, substrate Z-L-Lys-SBzl, read-out: IC50 (Stars).
Setting [4] is: Human Factor D assay of Example 8, Table 2, read-out: IC50.

Structures are written as SMILES. Where two headings read alike, the source gives them in different places.

Human Factor D, sequence (P00746 26-253): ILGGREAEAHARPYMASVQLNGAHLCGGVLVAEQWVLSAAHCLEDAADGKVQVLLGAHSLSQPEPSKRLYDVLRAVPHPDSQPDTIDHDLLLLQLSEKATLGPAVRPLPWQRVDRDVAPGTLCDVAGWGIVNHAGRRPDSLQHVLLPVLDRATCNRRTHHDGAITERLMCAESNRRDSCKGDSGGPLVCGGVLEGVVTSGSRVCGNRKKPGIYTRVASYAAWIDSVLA

As for `CN1CC=C(c2ccc3c(c2)c(C(N)=O)nn3CC(=O)N2C[C@H](F)C[C@H]2C(=O)Nc2cccc(Br)n2)CC1` [Compound 22, 1-(2-((2S,4R)-2-(6-bromopyridin-2-ylcarbamoyl)-4-fluoropyrrolidin-1-yl)-2-oxoethyl)-5-(1-methyl-1,2,3,6-tetrahydropyridin-4-yl)-1H-indazole-3-carboxamide], the IC50 under setting [1] is less than 1000 nM.
As to `CC(=O)c1cn(CC(=O)N2C[C@H](F)C[C@H]2C(=O)Nc2cccc(Br)n2)c2ccc(-c3cnc(F)nc3)cc12` [Compound 83, (2S,4R)-1-(2-(3-acetyl-5-(2-fluoropyrimidin-5-yl)-1H-indol-1-yl)acetyl)-N-(6-bromopyridin-2-yl)-4-fluoropyrrolidine-2-carboxamide], the IC50 under setting [1] is less than 1000 nM.
For the compound `COc1ccc(-c2ccc3c(c2)c(C(C)=O)nn3CC(=O)N2CC[C@H]2C(=O)Nc2cccc(C)n2)cn1` [Compound 546, (S)-1-(2-(3-Acetyl-5-(6-methoxypyridin-3-yl)-1H-indazol-1-yl)acetyl)-N-(6-methylpyridin-2-yl)azetidine-2-carboxamide], the IC50 under setting [2] was more than 10000 nM.
On to `CC(=O)c1nn(CC(=O)N2C[C@H](F)C[C@H]2C(=O)Nc2cccc(Br)n2)c2ccc(-c3cnc(Oc4ccncc4)nc3)cc12` [Compound 554, (2S,4R)-1-(2-(3-aAetyl-5-(2-(pyridin-4-yloxy)pyrimidin-5-yl)-1H-indazol-1-yl)acetyl)-N-(6-bromopyridin-2-yl)-4-fluoropyrrolidine-2-carboxamide], for which the IC50 under setting [2] is less than 1000 nM.
Still for that read-out and setting: as for `CC(=O)c1nn(CC(=O)N2[C@@H]3C[C@@H]3C[C@H]2C(=O)Nc2cccc(OC(F)(F)F)n2)c2ccc(-c3cnc4ccnn4c3)cc12` [Compound 671, (1R,3S,5R)-2-(2-(3-Acetyl-5-(pyrazolo[1,5-a]pyrimidin-6-yl)-1H-indazol-1-yl)acetyl)-N-(6-(trifluoromethoxy)pyridin-2-yl)-2-azabicyclo[3.1.0]hexane-3-carboxamide], the figure is less than 1000 nM.
As to `CC(=O)c1nn(CC(=O)N2C[C@H](F)C[C@H]2C(=O)Nc2cccc(-c3cc(S(N)(=O)=O)ccc3Cl)c2F)c2ccc(-c3cnc(C)nc3)cc12` [Compound 341, (2S,4R)-1-(2-(3-Acetyl-5-(2-methylpyrimidin-5-yl)-1H-indazol-1-yl)acetyl)-N-(2′-chloro-2-fluoro-5′-sulfamoyl-[1,1′-biphenyl]-3-yl)-4-fluoropyrrolidine-2-carboxamide], the IC50 under setting [3] was less than 1000 nM.
`CC(=O)c1nn(CC(=O)N2C[C@H](F)C[C@H]2C(=O)Nc2cccc(S(=O)(=O)C(F)(F)F)c2)c2ccc(-c3cnc4cc(C)nn4c3)cc12` [Compound 752, (2S,4R)-1-(2-(3-acetyl-5-(2-methylpyrazolo[1,5-a]pyrimidin-6-yl)-1H-indazol-1-yl)acetyl)-4-fluoro-N-(3-((trifluoromethyl)sulfonyl)phenyl) pyrrolidine-2-carboxamide]: the IC50 under setting [2] is less than 1000 nM.
Consider `NC(=O)c1nn(CC(=O)N2C[C@H](F)C[C@H]2C(=O)Nc2cccc(-c3ccccc3Cl)c2F)c2ccc(-c3ccc(F)nc3)cc12` [Compound 12, 1-(2-((2S,4R)-2-((2′-Chloro-2-fluoro-[1,1′-biphenyl]-3-yl)carbamoyl)-4-fluoropyrrolidin-1-yl)-2-oxoethyl)-5-(6-fluoropyridin-3-yl)-1H-indazole-3-carboxamide], for which, under setting [1], the half-inhibitory concentration (IC50) is less than 1000 nM.
For `CC(=O)c1nn(CC(=O)N2C[C@H](F)C[C@H]2C(=O)Nc2cccc(Br)n2)c2ccc(-c3cnn(-c4ncccn4)c3)cc12` [Compound 696, (2S,4R)-1-(2-(3-Acetyl-5-(1-(pyrimidin-2-yl)-1H-pyrazol-4-yl)-1H-indazol-1-yl)acetyl)-N-(6-bromopyridin-2-yl)-4-fluoropyrrolidine-2-carboxamide], the IC50 under setting [2] was less than 1000 nM.
For `CC(=O)c1nn(CC(=O)N2C[C@H](F)C[C@H]2C(=O)Nc2cc(C(F)(F)F)cc(Br)n2)c2ccc(-c3cnc(C)nc3)cc12` [Compound 370, (2S,4R)-1-(2-(3-Acetyl-5-(2-methylpyrimidin-5-yl)-1H-indazol-1-yl)acetyl)-N-(6-bromo-4-(trifluoromethyl)pyridin-2-yl)-4-fluoropyrrolidine-2-carboxamide], under setting [3], the IC50 is less than 1000 nM.
Consider `NC(=O)c1nn(CC(=O)N2C[C@H](F)C[C@H]2C(=O)Nc2cccc(O)n2)c2ccc(-c3ccnnc3)cc12` [Compound 174, 1-(2-((2S,4R)-4-fluoro-2-(6-hydroxypyridin-2-ylcarbamoyl)pyrrolidin-1-yl)-2-oxoethyl)-5-(pyridazin-4-yl)-1H-indazole-3-carboxamide], for which the IC50 under setting [1] was more than 10000 nM.
Same read-out and setting: for `CC(=O)c1cn(CC(=O)N2C[C@H](F)C[C@H]2C(=O)Nc2nc(-c3c(C)nc4sccn34)cs2)c2ccc(-c3ccnnc3)cc12` [Compound 57] the value was more than 10000 nM; for `NC(=O)c1nn(CC(=O)N2C[C@H](F)C[C@H]2C(=O)NCc2nc3ccccc3s2)c2ccc(-c3ccnnc3)cc12` [Compound 52, 1-(2-((2S,4R)-2-(benzo[d]thiazol-2-ylmethylcarbamoyl)-4-fluoropyrrolidin-1-yl)-2-oxoethyl)-5-(pyridazin-4-yl)-1H-indazole-3-carboxamide], more than 10000 nM.
For the compound `CC(=O)c1nn(CC(=O)N2C[C@H](F)C[C@H]2C(=O)Nc2cccc(Br)n2)c2ccc(-c3cnc4cc(C(C)C)nn4c3)cc12` [Compound 274, (2S,4R)-1-(2-(3-acetyl-5-(2-isopropylpyrazolo [1,5-a]pyrimidin-6-yl)-1H-indazol-1-yl)acetyl)-N-(6-bromopyridin-2-yl)-4-fluoropyrrolidine-2-carboxamide], the IC50 under setting [4] was less than 1000 nM.
As for `CSc1cccc(NC(=O)[C@@H]2C[C@@H](F)CN2C(=O)Cn2nc(C(C)=O)c3cc(-c4cnc(C)nc4)ccc32)n1` [Compound 246, (2S,4R)-1-(2-(3-acetyl-5-(2-methylpyrimidin-5-yl)-1H-indazol-1-yl)acetyl)-4-fluoro-N-(6-(methylthio)pyridin-2-yl)pyrrolidine-2-carboxamide], the IC50 under setting [4] is less than 1000 nM.
On to `CC(=O)c1cn(CC(=O)N2[C@@H]3C[C@@H]3C[C@H]2C(=O)Nc2cccc(-c3ccccc3Cl)c2F)c2ccc(-c3cnc(C)nc3)cc12` [Compound 133, (1R,3S,5R)-2-(2-(3-acetyl-5-(2-methylpyrimidin-5-yl)-1H-indol-1-yl)acetyl)-N-(2′-chloro-2-fluorobiphenyl-3-yl)-2-azabicyclo[3.1.0] hexane-3-carboxamide], for which the IC50 under setting [1] was less than 1000 nM.
With `Cn1ccc(N2CCC(NC(=O)[C@@H]3C[C@@H](F)CN3C(=O)Cn3nc(C(N)=O)c4cc(-c5ccnnc5)ccc43)C2=O)n1` (stereo partly drawn) [Compound 155, 1-(2-((2S,4R)-4-fluoro-2-(1-(1-methyl-1H-pyrazol-3-yl)-2-oxopyrrolidin-3-ylcarbamoyl)pyrrolidin-1-yl)-2-oxoethyl)-5-(pyridazin-4-yl)-1H-indazole-3-carboxamide], the IC50 under setting [1] is more than 10000 nM.
On to `CC(=O)c1nn(CC(=O)N2C[C@H](F)C[C@H]2C(=O)Nc2cccc(OC(F)(F)F)n2)c2ccc(-c3cnc4cc(C)nn4c3)cc12` [Compound 330, (2S,4R)-1-(2-(3-acetyl-5-(2-methylpyrazolo[1,5-a]pyrimidin-6-yl)-1H-indazol-1-yl)acetyl)-4-fluoro-N-(6-(trifluoromethoxy)pyridin-2-yl)pyrrolidine-2-carboxamide], for which the IC50 under setting [4] is less than 1000 nM.
As to `CC(=O)c1cn(CC(=O)N2C[C@H](F)C[C@H]2C(=O)Nc2cccc(-c3ccccc3Cl)c2F)c2ccc(-c3cnc(C)nc3)cc12` [Compound 102, (2S,4R)-1-(2-(3-acetyl-5-(2-methylpyrimidin-5-yl)-1H-indol-1-yl)acetyl)-N-(2′-chloro-2-fluorobiphenyl-3-yl)-4-fluoropyrrolidine-2-carboxamide], under setting [1], the IC50 was less than 1000 nM.
Consider `CC(=O)c1nn(CC(=O)N2C[C@H](F)C[C@H]2C(=O)Nc2nc(Cl)cs2)c2ccc(-c3cnc(C)nc3)cc12` [Compound 258, (2S,4R)-1-(2-(3-acetyl-5-(2-methylpyrimidin-5-yl)-1H-indazol-1-yl)acetyl)-N-(4-chlorothiazol-2-yl)-4-fluoropyrrolidine-2-carboxamide], for which the IC50 under setting [4] was less than 1000 nM.
With `CC(=O)c1nn(CC(=O)N2C(C(=O)Nc3cccc(Br)n3)C[C@@]3(CN(C)C)C[C@@H]23)c2ccc(-c3cnc(C)nc3)cc12` (stereo in doubt) [Compound 577, (1R,3S,5R)-2-(2-(3-Acetyl-5-(2-methylpyrimidin-5-yl)-1H-indazol-1-yl)acetyl)-N-(6-bromopyridin-2-yl)-5-((dimethylamino)methyl)-2-azabicyclo[3.1.0]hexane-3-carboxamide], the IC50 under setting [2] was less than 1000 nM.
With `CC(=O)c1nn(CC(=O)N2CCC[C@H]2C(=O)Nc2cccc(Br)n2)c2ccc(-c3cnc(C)nc3)cc12` [Compound 230, (S)-1-(2-(3-Acetyl-5-(2-methylpyrimidin-5-yl)-1H-indazol-1-yl)acetyl)-N-(6-bromopyridin-2-yl)pyrrolidine-2-carboxamide], the IC50 under setting [4] is less than 1000 nM.
As for `CC(=O)c1nn(CC(=O)N2[C@@H]3C[C@@H]3C[C@H]2C(=O)NC/C(F)=C(/C)c2cccc(Cl)c2)c2ccc(-c3cnc(C)nc3)cc12` [Compound 506, (1R,3S,5R)-2-(2-(3-Acetyl-5-(2-methylpyrimidin-5-yl)-1H-indazol-1-yl)acetyl)-N-((E)-3-(3-chlorophenyl)-2-fluorobut-2-en-1-yl)-2-azabicyclo[3.1.0]hexane-3-carboxamide], the IC50 under setting [3] is less than 1000 nM.
Still for that read-out and setting: for `CNc1ncc(-c2ccc3c(c2)c(C(C)=O)nn3CC(=O)N2[C@@H]3C[C@@H]3C[C@H]2C(=O)Nc2cncc(Br)n2)cn1` [Compound 379, (1R,3S,5R)-2-(2-(3-Acetyl-5-(2-(methylamino)pyrimidin-5-yl)-1H-indazol-1-yl)acetyl)-N-(6-bromopyrazin-2-yl)-2-azabicyclo[3.1.0]hexane-3-carboxamide] the value was less than 1000 nM.

As a reminder, the IC50 is the concentration that gives 50% inhibition.

Values taken from US10287301B2 (Achillion Pharmaceuticals, Inc., priority 2015, dated 2019).
